Laboratory results: patent publication US12522601B2, “1,3,4-oxadiazole derivative compounds as histone deacetylase 6 inhibitor, and the pharmaceutical composition comprising the same” (CHONG KUN DANG PHARMACEUTICAL CORP., priority 2020, dated 2026)

How the values were obtained:
human recombinant HDAC6 = biological target: T1, human recombinant HDAC6 (Homo sapiens, UniProt Q9UBN7); test: In vitro HDAC enzyme activity inhibition assay, HDAC6 (HDAC Fluorimetric Drug Discovery Kit); type: biochemical; conditions: for HDAC6 Selectivity (fold): HDAC6 versus HDAC1; for IC50: human recombinant HDAC6, same protocol as the HDAC1 test
T1 construct: purchased Calbiochem Inc. 382180
T1 sequence (Q9UBN7 1-1215): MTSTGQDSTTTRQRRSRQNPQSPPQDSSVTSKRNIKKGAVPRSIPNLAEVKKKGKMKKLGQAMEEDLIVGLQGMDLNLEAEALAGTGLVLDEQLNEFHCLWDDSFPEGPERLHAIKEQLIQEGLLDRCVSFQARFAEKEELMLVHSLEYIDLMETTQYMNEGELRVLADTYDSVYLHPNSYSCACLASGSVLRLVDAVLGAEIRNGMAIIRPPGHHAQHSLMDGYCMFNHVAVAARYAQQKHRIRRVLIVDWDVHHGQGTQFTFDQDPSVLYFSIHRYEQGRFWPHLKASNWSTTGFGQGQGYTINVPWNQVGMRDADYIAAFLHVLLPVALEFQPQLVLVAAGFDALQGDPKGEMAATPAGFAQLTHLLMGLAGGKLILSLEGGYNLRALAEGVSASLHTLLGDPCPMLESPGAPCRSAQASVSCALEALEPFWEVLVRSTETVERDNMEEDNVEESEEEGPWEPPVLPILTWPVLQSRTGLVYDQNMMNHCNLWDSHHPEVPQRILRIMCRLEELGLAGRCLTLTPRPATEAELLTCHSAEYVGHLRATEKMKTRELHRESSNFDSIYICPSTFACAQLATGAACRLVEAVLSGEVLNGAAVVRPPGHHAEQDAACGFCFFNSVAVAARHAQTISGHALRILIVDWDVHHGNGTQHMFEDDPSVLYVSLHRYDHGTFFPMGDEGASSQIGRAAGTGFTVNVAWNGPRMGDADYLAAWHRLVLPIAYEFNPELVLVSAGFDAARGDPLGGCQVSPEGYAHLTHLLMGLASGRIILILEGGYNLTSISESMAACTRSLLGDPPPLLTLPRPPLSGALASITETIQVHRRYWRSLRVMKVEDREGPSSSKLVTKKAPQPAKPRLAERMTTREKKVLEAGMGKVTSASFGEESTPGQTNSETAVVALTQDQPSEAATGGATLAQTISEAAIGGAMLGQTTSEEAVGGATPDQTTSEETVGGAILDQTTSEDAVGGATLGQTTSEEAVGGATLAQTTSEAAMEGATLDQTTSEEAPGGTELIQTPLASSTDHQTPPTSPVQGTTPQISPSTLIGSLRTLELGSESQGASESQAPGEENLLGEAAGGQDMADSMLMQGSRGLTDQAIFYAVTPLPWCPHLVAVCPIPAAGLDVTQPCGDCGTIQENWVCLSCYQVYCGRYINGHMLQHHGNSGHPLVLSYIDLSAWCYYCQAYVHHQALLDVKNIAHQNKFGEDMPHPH
Summary of the method: (§1)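 Fluorimetric deacetylase kit; 0.3 μg human recombinant enzyme with 10 μM Fluor de Lys-SIRT1 substrate, 60 min at 30° C, then developer 30 min. Fluorescence read at Ex 360/Em 460; IC50 from 5-fold compound dilutions. HDAC1 and HDAC6 run by the same protocol.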

human recombinant HDAC1 = biological target: T2, human recombinant HDAC1 (Homo sapiens, UniProt Q13547); test: In vitro HDAC enzyme activity inhibition assay, HDAC1 (HDAC Fluorimetric Drug Discovery Kit); type: biochemical; conditions: human recombinant HDAC1, Fluor de Lys-SIRT1 substrate 10 μM, 30° C. for 60 minutes
T2 construct: purchased Enzo Life Sciences, Inc. BML-SE456
T2 sequence (Q13547 whole entry): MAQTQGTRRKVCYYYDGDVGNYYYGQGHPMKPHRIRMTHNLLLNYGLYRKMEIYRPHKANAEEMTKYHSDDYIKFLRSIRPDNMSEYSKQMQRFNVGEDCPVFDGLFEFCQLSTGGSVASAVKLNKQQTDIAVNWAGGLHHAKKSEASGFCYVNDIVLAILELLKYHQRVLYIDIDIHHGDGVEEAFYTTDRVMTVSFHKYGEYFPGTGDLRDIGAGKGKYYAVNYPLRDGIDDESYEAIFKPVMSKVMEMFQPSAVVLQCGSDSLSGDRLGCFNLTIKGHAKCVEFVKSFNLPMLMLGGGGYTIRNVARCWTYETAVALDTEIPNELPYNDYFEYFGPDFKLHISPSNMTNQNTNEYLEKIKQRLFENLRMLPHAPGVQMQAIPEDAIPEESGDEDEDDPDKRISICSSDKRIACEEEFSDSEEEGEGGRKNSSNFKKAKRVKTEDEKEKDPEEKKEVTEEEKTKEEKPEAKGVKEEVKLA
Summary of the method: as §1

Compound	HDAC6 Selectivity (fold) (human recombinant HDAC6)	IC50 (human recombinant HDAC6)	IC50 (human recombinant HDAC1)
O=C(N1CCN(C2CCC(F)(F)CC2)CC1)N(Cc1cn2ccc(-c3nnc(C(F)F)o3)cc2n1)c1ccccc1 [Compound 4039, 4-(4,4-difluorocyclohexyl)-N-((7-(5-(difluoromethyl)-1,3,4-oxadiazol-2-yl)imidazo[1,2-a]pyridin-2-yl)methyl)-N-phenylpiperazine-1-carboxamide]	338 fold	0.148 µM	> 50 µM
CCN1CC(C(=O)N(Cc2cn3ccc(-c4nnc(C(F)F)o4)cc3n2)c2ccccc2)C1 [Compound 4159, N-((7-(5-(difluoromethyl)-1,3,4-oxadiazol-2-yl)imidazo[1,2-a]pyridin-2-yl)methyl)-1-ethyl-N-phenylazetidine-3-carboxamide]	118 fold	0.425 µM	> 50 µM
O=C(C1CN(c2ncccn2)C1)N(Cc1cn2ccc(-c3nnc(C(F)F)o3)cc2n1)c1ccccc1 [Compound 4177, N-((7-(5-(difluoromethyl)-1,3,4-oxadiazol-2-yl)imidazo[1,2-a]pyridin-2-yl)methyl)-N-phenyl-1-(pyrimidin-2-yl) azetidine-3-carboxamide]	205 fold	0.244 µM	> 50 µM
CN(C)C(=O)N1CC(C(=O)N(Cc2cn3ccc(-c4nnc(C(F)F)o4)cc3n2)c2cccc(F)c2)C1 [Compound 4205, N3-((7-(5-(difluoromethyl)-1,3,4-oxadiazol-2-yl)imidazo[1,2-a]pyridin-2-yl)methyl)-N3-(3-fluorophenyl)-N1,N1-dimethylazetidine-1,3-dicarboxamide]	348 fold	0.144 µM	> 50 µM

Continued, values first:

HDAC6 Selectivity (fold) (human recombinant HDAC6)	IC50 (human recombinant HDAC6)	IC50 (human recombinant HDAC1)	Compound
206 fold	0.243 µM	> 50 µM	O=C(C1CCN(C2CCOCC2)CC1)N(Cc1cn2ccc(-c3nnc(C(F)F)o3)cc2n1)c1cccc(F)c1 [Compound 4144, N-((7-(5-(difluoromethyl)-1,3,4-oxadiazol-2-yl)imidazo[1,2-a]pyridin-2-yl)methyl)-N-(3-fluorophenyl)-1-(tetrahydro-2H-pyran-4-yl)piperidine-4-carboxamide]
234 fold	0.214 µM	> 50 µM	O=C(C1CCC1)N1CCC(C(=O)N(Cc2cn3ccc(-c4nnc(C(F)F)o4)cc3n2)c2cccc(F)c2)CC1 [Compound 4150, 1-(cyclobutanecarbonyl)-N-((7-(5-(difluoromethyl)-1,3,4-oxadiazol-2-yl)imidazo[1,2-a]pyridine-2-yl)methyl)-N-(3-fluorophenyl)piperidine-4-carboxamide]
335 fold	0.149 µM	> 50 µM	O=C(C1CCN(C2CCCCC2)CC1)N(Cc1cn2ccc(-c3nnc(C(F)F)o3)cc2n1)c1cccc(F)c1 [Compound 4143, 1-cyclohexyl-N-((7-(5-(difluoromethyl)-1,3,4-oxadiazol-2-yl)imidazo[1,2-a]pyridin-2-yl)methyl)-N-(3-fluorophenyl)piperidine-4-carboxamide]
740 fold	0.0676 µM	> 50 µM	CN1CCC(C(=O)N(Cc2cn3ccc(-c4nnc(C(F)F)o4)cc3n2)c2ccccc2)CC1 [Compound 3782, N-((7-(5-(difluoromethyl)-1,3,4-oxadiazol-2-yl)imidazo[1,2-a]pyridin-2-yl)methyl)-1-methyl-N-phenylpiperidine-4-carboxamide]
134 fold	0.373 µM	> 50 µM	CN1CC(C(=O)N(Cc2cn3ccc(-c4nnc(C(F)F)o4)cc3n2)c2cccc(F)c2)C1 [Compound 4188, N-((7-(5-(difluoromethyl)-1,3,4-oxadiazol-2-yl)imidazo[1,2-a]pyridin-2-yl)methyl)-N-(3-fluorophenyl)-1-methylazetidine-3-carboxamide]
